Test results as given in US20130018033A1, “RAF INHIBITOR COMPOUNDS AND METHODS OF USE THEREOF” (ARRAY BIOPHARMA INC., priority 2009, published 2013).
Read-outs that look alike come from different tables or passages of the source.

Assays:
V600E full-length B-Raf = target: T1, V600E full-length B-Raf (Homo sapiens, UniProt P15056, V600E); test: B-Raf IC50 assay (Example A); assay type: biochemical
T1 construct: 1 μM FSBA-MEK and 20 nM V600E full-length B-Raf; made in house; host or cells: Sf9 insect cells (baculovirus)
T1 sequence (P15056 whole entry V600E): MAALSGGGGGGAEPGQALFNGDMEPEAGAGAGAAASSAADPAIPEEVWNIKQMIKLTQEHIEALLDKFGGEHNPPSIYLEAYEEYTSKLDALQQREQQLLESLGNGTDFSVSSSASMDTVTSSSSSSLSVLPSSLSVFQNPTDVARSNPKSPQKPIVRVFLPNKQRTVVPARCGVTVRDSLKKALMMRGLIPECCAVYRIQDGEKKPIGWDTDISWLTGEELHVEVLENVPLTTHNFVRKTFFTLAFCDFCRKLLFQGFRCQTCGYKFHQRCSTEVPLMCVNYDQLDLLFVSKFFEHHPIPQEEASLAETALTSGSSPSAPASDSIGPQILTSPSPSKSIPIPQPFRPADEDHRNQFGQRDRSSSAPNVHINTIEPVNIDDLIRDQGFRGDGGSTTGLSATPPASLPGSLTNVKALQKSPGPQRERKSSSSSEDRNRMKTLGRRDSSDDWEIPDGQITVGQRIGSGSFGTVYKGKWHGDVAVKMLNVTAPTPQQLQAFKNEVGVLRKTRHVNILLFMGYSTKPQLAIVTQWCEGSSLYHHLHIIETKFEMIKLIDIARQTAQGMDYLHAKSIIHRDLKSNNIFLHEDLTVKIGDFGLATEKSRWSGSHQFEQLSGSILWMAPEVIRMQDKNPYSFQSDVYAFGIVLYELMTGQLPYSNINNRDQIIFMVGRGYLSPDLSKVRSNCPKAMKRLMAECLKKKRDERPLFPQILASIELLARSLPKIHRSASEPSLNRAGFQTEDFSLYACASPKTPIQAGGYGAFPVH
Description: Determining the activity of Raf in the sample is possible by a number of direct and indirect detection methods (US 2004/0082014). Activity of human recombinant B-Raf protein may be assessed in vitro by assay of the incorporation of radio labeled phosphate to recombinant MAP kinase (MEK), a known physiologic substrate of B-Raf, according to US 2004/0127496 and WO 03/022840. The activity/inhibition of V600E full-length B-Raf was estimated by measuring the incorporation of radio labeled phosphate from [γ-^33P]ATP into FSBA-modified wild-type MEK (see Example A).
Activity of human recombinant B-Raf protein may be assessed in vitro by assay of the incorporation of radio labeled phosphate to recombinant MAP kinase (MEK), a known physiologic substrate of B-Raf, according to US 2004/0127496 and WO 03/022840. Catalytically active human recombinant B-Raf protein is obtained by purification from sf9 insect cells infected with a human B-Raf recombinant baculovirus expression vector.
The activity/inhibition of V600E full-length B-Raf was estimated by measuring the incorporation of radio labeled phosphate from [γ-^33P]ATP into FSBA-modified wild-type MEK. The 30-μL assay mixtures contained 25 mM Na Pipes, pH 7.2, 100 mM KCl, 10 mM MgCl2, 5 mM β-glycerophosphate, […], 4 μM ATP, 500 nCi [γ-^33P]ATP, 1 μM FSBA-MEK and 20 nM V600E full-length B-Raf. Incubations were carried out at 22° C. in a Costar 3365 plate (Corning). Prior to the assay, the B-Raf and FSBA-MEK were preincubated together in assay buffer at 1.5×(20 μL of 30 nM and 1.5 μM, respectively) for 15 minutes, and the assay was initiated by the addition of 10 μL of 10 μM ATP. Following the 60-minute incubation, the assay mixtures were quenched by the addition of 100 μL of 25% TCA, the plate was mixed on a rotary shaker for 1 minute, and the product was captured on a Perkin-Elmer GF/B filter plate using a Tomtec Mach III Harvester. After sealing the bottom of the plate, 35 μL of Bio-Safe II (Research Products International) scintillation cocktail were added to each well and the plate was top-sealed and counted in a Topcount NXT (Packard).

[1] = system: basal ERK1/2 phosphorylation in Malme-3M cells; test: Cellular ERK 1/2 phosphorylation assay (Example A1); assay type: cell-based; conditions: Homo sapiens, 1 hour incubation, pERK normalized to total ERK, read-out: P-ERK Malme3-M IC50
Description: Inhibition of basal ERK1/2 phosphorylation was determined by the following in vitro […], which comprises incubating cells with a compound of Formula I for 1 hour and quantifying the fluorescent pERK signal on fixed cells and normalizing to total ERK signal.
Malme-3M cells were obtained from ATCC and grown in RPMI-1640 supplemented with 10% fetal bovine serum. Cells were plated in 96-well plates at 24,000 cells/well and allowed to attach for 16-20 hours at 37° C., 5% CO2. The media was removed, and DMSO-diluted compounds were added in RPMI-1640 at a final concentration of 1% DMSO. The cells were incubated with the compounds for 1 hour at 37° C., 5% CO2. The cells were washed with PBS and fixed in 3.7% formaldehyde in PBS for 15 minutes. This was followed by washing in PBS/0.05% Tween20 and permeabilizing in −20° C. 100% MeOH for 15 minutes. Cells were washed in PBS/0.05% Tween20 then blocked in Odyssey blocking buffer (LI-COR Biosciences) for 1 hour. Antibodies to phosphorylated ERK (1:400, Cell Signaling #9106, monoclonal) and total ERK (1:400, Santa Cruz Biotechnology #sc-94, polyclonal) were added to the cells and incubated 16-20 hours at 4° C. After washing with PBS/0.05% Tween20, the cells were incubated with fluorescently-labeled secondary antibodies (1:1000 goat anti-rabbit IgG-IRDye800, Rockland and 1:500 goat anti-mouse IgG-Alexa Fluor 680, Molecular Probes) for an additional hour. Cells were then washed and analyzed for fluorescence at both wavelengths using the Odyssey Infrared Imaging System (LI-COR Biosciences). Phosphorylated ERK signal was normalized to total ERK signal.

[2] = B-Raf V600E assay of Example A, read-out: IC50
[3] = [γ-33P]ATP incorporation into FSBA-MEK, 4 μM ATP, read-out: BRAF V600E IC50

Row | IC50 (V600E full-length B-Raf; [2]) | IC50 (V600E full-length B-Raf; [3]) | SMILES | IC50 [1]
1 | < 100 nM | 64.9 nM | CCCS(=O)(=O)Nc1ccc(Cl)c(NC(=O)c2cccc3c(N)ncnc23)c1 [Example 22, 4-Amino-quinazoline-8-carboxylic acid [2-chloro-5-(propane-1-sulfonylamino)-phenyl]-amide] | 1110 nM
2 | < 100 nM | 0.14 nM | Nc1ncnc2c(C(=O)Nc3c(F)ccc(NS(=O)(=O)CCCF)c3Cl)cccc12 [Example 24, 4-Amino-quinazoline-8-carboxylic acid [2-chloro-6-fluoro-3-(3-fluoro-propane-1-sulfonylamino)-phenyl]-amide] | 4.05 nM
3 | < 100 nM | 0.09 nM | Nc1ncnc2c(C(=O)Nc3c(Cl)ccc(NS(=O)(=O)CCCF)c3F)cccc12 [Example 25, 4-Amino-quinazoline-8-carboxylic acid [6-chloro-2-fluoro-3-(3-fluoro-propane-1-sulfonylamino)-phenyl]-amide] | 2.21 nM
4 | < 100 nM | 0.31 nM | Nc1ncnc2c(C(=O)Nc3c(F)c(F)cc(NS(=O)(=O)CCCF)c3F)cccc12 [Example 26, 4-Amino-quinazoline-8-carboxylic acid [2,3,6-trifluoro-5-(3-fluoro-propane-1-sulfonylamino)-phenyl]-amide] | 10.8 nM
5 | < 100 nM | 0.08 nM | Nc1ncnc2c(C(=O)Nc3c(Cl)ccc(NS(=O)(=O)CCCF)c3Cl)cccc12 [Example 27, 4-Amino-quinazoline-8-carboxylic acid [2,6-dichloro-3-(3-fluoro-propane-1-sulfonylamino)-phenyl]-amide] | 4.07 nM
6 | < 100 nM | 0.08 nM | CCCS(=O)(=O)Nc1ccc(Cl)c(NC(=O)c2cccc3c(N)ncnc23)c1C#N [Example 29, 4-Amino-quinazoline-8-carboxylic acid [6-chloro-2-cyano-3-(propane-1-sulfonylamino)-phenyl]-amide] | 25.3 nM
7 | < 100 nM | 0.08 nM | CCCS(=O)(=O)Nc1cccc(NC(=O)c2cccc3c(N)ncnc23)c1C#N [Example 30, 4-Amino-quinazoline-8-carboxylic acid [2-cyano-3-(propane-1-sulfonylamino)-phenyl]-amide] | 7.1 nM
8 | < 100 nM | 0.4 nM | C#Cc1c(NS(=O)(=O)CCC)ccc(Cl)c1NC(=O)c1cccc2c(N)ncnc12 [Example 31, 4-Amino-quinazoline-8-carboxylic acid [6-chloro-2-ethynyl-3-(propane-1-sulfonylamino)-phenyl]-amide] | 42 nM
9 | < 100 nM | 0.38 nM | Nc1ncnc2c(C(=O)Nc3c(F)ccc(NS(=O)(=O)c4ccccc4)c3F)cccc12 [Example 32, 4-Amino-quinazoline-8-carboxylic acid (3-benzenesulfonylamino-2,6-difluoro-phenyl)-amide] | 17.7 nM
10 | < 100 nM | 0.17 nM | Nc1ncnc2c(C(=O)Nc3c(F)ccc(NS(=O)(=O)c4ccco4)c3F)cccc12 [Example 33, 4-Amino-quinazoline-8-carboxylic acid [2,6-difluoro-3-(furan-2-sulfonylamino)-phenyl]-amide] | 12.5 nM
11 | < 100 nM | 12.7 nM | Nc1ncnc2c(C(=O)Nc3c(F)ccc(NS(=O)(=O)N4CCCC4)c3F)cccc12 [Example 34, 4-Amino-quinazoline-8-carboxylic acid [2,6-difluoro-3-(pyrrolidine-1-sulfonylamino)-phenyl]-amide] | 15.6 nM
12 | < 100 nM | 0.16 nM | N#Cc1c(NS(=O)(=O)N2CCCC2)ccc(F)c1NC(=O)c1cccc2c(N)ncnc12 [Example 35, 4-Amino-quinazoline-8-carboxylic acid [2-cyano-6-fluoro-3-(pyrrolidine-1-sulfonylamino)-phenyl]-amide] | 7.48 nM
13 | < 100 nM | 14.8 nM | CN(C)S(=O)(=O)Nc1ccc(F)c(NC(=O)c2cccc3c(N)ncnc23)c1F [Example 36, 4-Amino-N-(3-(N,N-dimethylsulfamoylamino)-2,6-difluorophenyl)quinazoline-8-carboxamide] | 25.2 nM
14 | < 100 nM | 21.5 nM | CCN(C)S(=O)(=O)Nc1ccc(F)c(NC(=O)c2cccc3c(N)ncnc23)c1Cl [Example 37, 4-Amino-N-(2-chloro-3-(N-ethyl-N-methylsulfamoylamino)-6-fluorophenyl)quinazoline-8-carboxamide] | 39.7 nM
15 | < 100 nM | 7.01 nM | CN(C)S(=O)(=O)Nc1ccc(Cl)c(NC(=O)c2cccc3c(N)ncnc23)c1F [Example 38, 4-Amino-N-(6-chloro-3-(N,N-dimethylsulfamoylamino)-2-fluorophenyl)quinazoline-8-carboxamide] | 28 nM
16 | < 100 nM | 7.5 nM | CN(C)S(=O)(=O)Nc1ccc(F)c(NC(=O)c2cccc3c(N)ncnc23)c1Cl [Example 39, 4-Amino-N-(2-chloro-3-(N,N-dimethylsulfamoylamino)-6-fluorophenyl)quinazoline-8-carboxamide] | 32.7 nM
17 | < 100 nM | 2.2 nM | CCCS(=O)(=O)Nc1ccc(F)c(NC(=O)c2cc(C#CCO)cc3c(N)ncnc23)c1F [Example 40, 4-Amino-6-(3-hydroxy-prop-1-ynyl)-quinazoline-8-carboxylic acid [2,6-difluoro-3-(propane-1-sulfonylamino)-phenyl]-amide] | 158 nM
18 | < 1000 nM | 293 nM | CCCS(=O)(=O)Nc1cc(F)c(F)c(NC(=O)c2cccc3c(NCCF)ncnc23)c1F [Example 43, 4-(2-Fluoro-ethylamino)-quinazoline-8-carboxylic acid [2,3,6-trifluoro-5-(propane-1-sulfonylamino)-phenyl]-amide] | 2910 nM
19 | < 1000 nM | 105 nM | CCCS(=O)(=O)Nc1cc(F)c(F)c(NC(=O)c2cccc3c(NN4CCOCC4)ncnc23)c1F [Example 47, 4-(Morpholin-4-ylamino)-quinazoline-8-carboxylic acid [2,3,6-trifluoro-5-(propane-1-sulfonylamino)-phenyl]-amide] | 1170 nM
20 | < 1000 nM | 143 nM | O=C(Nc1c(F)c(F)cc(NS(=O)(=O)CCCF)c1F)c1cccc2c(NC3CC3)ncnc12 [Example 51, 4-(Cyclopropylamino)-N-(2,3,6-trifluoro-5-(3-fluoropropylsulfonamido)phenyl)quinazoline-8-carboxamide] | 2310 nM
21 | < 1000 nM | 290 nM | CCNc1ncnc2c(C(=O)Nc3c(F)c(F)cc(NS(=O)(=O)CCCF)c3F)cccc12 [Example 52, 4-Ethylamino-quinazoline-8-carboxylic acid [2,3,6-trifluoro-5-(3-fluoro-propane-1-sulfonylamino)-phenyl]-amide] | 5290 nM
22 | < 1000 nM | 119 nM | CCCS(=O)(=O)Nc1ccc(F)c(NC(=O)c2cccc3cncnc23)c1F [Example 54, Quinazoline-8-carboxylic acid [2,6-difluoro-3-(propane-1-sulfonylamino)-phenyl]amide] | 526 nM
